Assay: xn = mol fraction of the nth substance listed
Conditions: 101 kPa

CCCC[n+]1cccc(C)c1.O=S(=O)([N-]S(=O)(=O)C(F)(F)F)C(F)(F)F + CCO
speed of sound [m/s]
Conditions | 298.15 K | 303.15 K | 308.15 K
x2 = 0 | – | 1237.1 | –
x2 = 0.0533 | – | – | 1223.8
x2 = 0.0924 | 1244.5 | 1233.1 | –
x2 = 0.1963 | 1239.3 | 1227.9 | 1216.6
x2 = 0.3011 | 1233.2 | 1221.7 | 1210.3
x2 = 0.3959 | 1226.5 | 1214.9 | 1203.4
x2 = 0.4982 | – | 1206 | 1194.3
x2 = 0.599 | – | – | 1183.2
x2 = 0.6829 | 1195.9 | 1183.6 | 1171.3
x2 = 0.7355 | 1187.7 | 1175.2 | –
x2 = 0.8008 | 1176.4 | 1163.2 | 1150.3
x2 = 0.8991 | 1156.9 | 1142.8 | 1128.7
x2 = 0.9436 | 1149.9 | 1134.8 | 1119.9

CCCC[N+]1(C)CCCC1.O=S(=O)([N-]S(=O)(=O)C(F)(F)F)C(F)(F)F + CC(C)O
speed of sound [m/s]
Conditions | 298.15 K | 303.15 K | 308.15 K
x2 = 0 | 1269.3 | – | 1247.1
x2 = 0.0593 | 1264.9 | 1253.7 | 1243.5
x2 = 0.1319 | – | 1248.7 | 1237.4
x2 = 0.2344 | 1250.8 | 1239.1 | –
x2 = 0.3929 | 1234.8 | 1222.9 | 1211.2
x2 = 0.4935 | 1222.3 | 1210.2 | 1198.1
x2 = 0.5927 | 1207.5 | – | 1182.9
x2 = 0.718 | 1184.1 | 1171.2 | 1158.4
x2 = 0.8015 | 1165.1 | 1151.8 | 1138.5
x2 = 0.9018 | 1143 | 1129.1 | 1115.9
x2 = 0.9491 | 1138.1 | 1122.5 | 1106.8

CCCC[N+]1(C)CCCC1.O=S(=O)([N-]S(=O)(=O)C(F)(F)F)C(F)(F)F + CCCO
speed of sound [m/s]
Conditions | x2 = 0 | x2 = 0.0545 | x2 = 0.0931 | x2 = 0.1903 | x2 = 0.2935 | x2 = 0.3972 | x2 = 0.5916 | x2 = 0.7837 | x2 = 0.8975 | x2 = 0.9472
298.15 K | 1269.3 | 1267 | 1264.9 | 1259.7 | – | 1246 | 1230 | 1201.2 | 1190.9 | –
303.15 K | 1258.1 | – | 1253.5 | 1248.2 | 1241.7 | 1234.2 | – | 1188 | 1176.4 | 1178
308.15 K | 1247.1 | 1244.4 | 1242.3 | 1236.9 | 1230.2 | 1222.5 | 1206 | 1175 | 1162 | 1162.7

CCCO + CCCC[n+]1cccc(C)c1.O=S(=O)([N-]S(=O)(=O)C(F)(F)F)C(F)(F)F
x1 = 1
Conditions | speed of sound [m/s]
298.15 K | 1206.4
303.15 K | 1189.3
308.15 K | 1172.3

CC(C)O + CCCC[n+]1cccc(C)c1.O=S(=O)([N-]S(=O)(=O)C(F)(F)F)C(F)(F)F
x1 = 1
Conditions | speed of sound [m/s]
298.15 K | 1139.6
303.15 K | 1122
